The NIST ThermoML archive (doi:10.1016/j.jct.2016.08.010)

Assay: xn = mol fraction of the nth substance listed
Conditions: 100 kPa, Liquid; for speed of sound: Frequency=3 MHz, Sing-around technique in a fixed-path interferometer; for mass density: Vibrating tube method

CCCCn1cc[n+](C)c1C.F[B-](F)(F)F [1-butyl-2,3-dimethylimidazolium tetrafluoroborate] + CCn1cc[n+](C)c1.F[B-](F)(F)F
Conditions	mass density, 293.15 K [kg/m3]	mass density, 298.15 K [kg/m3]	mass density, 303.15 K [kg/m3]	mass density, 308.15 K [kg/m3]	speed of sound, 293.15 K [m/s]	speed of sound, 298.15 K [m/s]	speed of sound, 303.15 K [m/s]	speed of sound, 308.15 K [m/s]
x1 = 0.0952	1270.9	1267.3	1264.1	1260.5	1636.2	1624.1	1611.9	1600.4
x1 = 0.1386	1265.5	1262.1	1259	1255.6	1638.2	1626	1613.7	1602.1
x1 = 0.1754	1261.2	1257.9	1255	1251.7	1639.8	1627.4	1615.1	1603.4
x1 = 0.2361	1254.5	1251.5	1248.7	1245.7	1642.2	1629.6	1617.2	1605.3
x1 = 0.2819	1249.8	1247	1244.3	1241.4	1643.8	1631.1	1618.5	1606.6
x1 = 0.3347	1244.7	1242.1	1239.5	1236.7	1645.4	1632.5	1619.9	1607.9
x1 = 0.3722	1241.3	1238.8	1236.3	1233.6	1646.5	1633.5	1620.8	1608.7
x1 = 0.4192	1237.2	1234.9	1232.4	1229.9	1647.7	1634.6	1621.8	1609.7
x1 = 0.4451	1235.1	1232.8	1230.4	1227.9	1648.3	1635.1	1622.4	1610.2
x1 = 0.4807	1232.2	1230	1227.7	1225.2	1649.1	1635.8	1623	1610.8
x1 = 0.5327	1228.2	1226.1	1223.8	1221.4	1650.2	1636.8	1623.9	1611.7
x1 = 0.5785	1224.8	1222.8	1220.5	1218.2	1651	1637.6	1624.7	1612.4
x1 = 0.6364	1220.6	1218.7	1216.4	1214.2	1652.1	1638.5	1625.6	1613.2
x1 = 0.6729	1218	1216.1	1213.9	1211.7	1652.7	1639.1	1626.1	1613.7
x1 = 0.7342	1213.7	1211.8	1209.7	1207.6	1653.8	1640.1	1627.1	1614.6
x1 = 0.7738	1210.9	1209	1206.9	1204.9	1654.5	1640.8	1627.7	1615.2
x1 = 0.8254	1207.2	1205.4	1203.2	1201.3	1655.5	1641.7	1628.6	1616.1
x1 = 0.8739	1203.6	1201.8	1199.7	1197.8	1656.5	1642.7	1629.5	1616.9
x1 = 1	1193.5	1191.8	1189.7	1187.9	1659.7	1645.7	1632.5	1619.8
